Results taken from US8188096B2, “Protein kinase targeted therapeutics” (Northwestern University, priority 2006, dated 2012).

How the values were obtained:
CK1δ = CK1δ (Homo sapiens, UniProt P48730); test: in vitro phosphorylation of a standard protein or peptide substrate by purified kinase; type: biochemical; settings: 100 mM ATP, increasing concentrations of compound, percent of maximal enzyme activity (FIG. 2)
[1] = system: LPS-induced serum cytokine levels; test: LPS-induced serum cytokine levels in acute inflammation mouse model (ELISA); type: in vivo; settings: 25 mg/kg oral gavage, LPS 10 mg/kg i.p. 30 minutes later, serum after 6 hr, ELISA (FIG. 3)
[2] = plasma levels after oral administration (oral bioavailability); type: in vivo; settings: plasma levels after oral administration (FIG. 4A)
[3] = liver histological toxicity screen after chronic administration; type: in vivo; settings: after chronic administration (FIG. 4B)
[4] = metabolic stability in human liver microsome screen; type: in vitro ADME; settings: human liver microsome screen (FIG. 4C)

Sequence of CK1δ (P48730 whole entry): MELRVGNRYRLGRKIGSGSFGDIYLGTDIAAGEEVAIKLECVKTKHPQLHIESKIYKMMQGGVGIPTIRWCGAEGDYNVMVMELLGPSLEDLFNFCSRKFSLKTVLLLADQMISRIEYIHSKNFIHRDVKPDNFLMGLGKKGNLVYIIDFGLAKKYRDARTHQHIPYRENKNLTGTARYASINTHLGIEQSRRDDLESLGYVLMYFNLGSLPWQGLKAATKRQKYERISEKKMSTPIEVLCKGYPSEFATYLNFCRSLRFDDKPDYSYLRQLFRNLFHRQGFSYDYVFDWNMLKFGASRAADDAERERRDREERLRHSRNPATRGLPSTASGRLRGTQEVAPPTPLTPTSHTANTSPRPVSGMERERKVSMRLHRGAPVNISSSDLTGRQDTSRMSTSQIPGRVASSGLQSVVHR

## c1ccc(-c2nnc(N3CCN(c4ncccn4)CC3)cc2-c2ccncc2)cc1 [MW01-2-069aSRM]
CK1δ
  inhibition of CK1δ enzyme activity: inhibit in vitro p38 MAPK and CK1δ enzyme activity in a concentration dependent manner
[1]
  inhibition of LPS-induced serum cytokine levels: inhibit LPS-induced serum cytokine levels in vivo
[2]
  oral bioavailability: oral bioavailability, safety and metabolic stability is demonstrated
[3]
  liver histological toxicity: no liver histological toxicity
[4]
  metabolic stability: metabolic stability is demonstrated
